We go through 2 compounds from ChEMBL document CHEMBL5532655, “Discovery of (R)-4-(8-methoxy-2-methyl-1-(1-phenylethy)-1H-imidazo[4,5-c]quinnolin-7-yl)-3,5-dimethylisoxazole as a potent and selective BET inhibitor for treatment of acute myeloid leukemia (AML) guided by FEP calculation” (Eur J Med Chem, 2024).

Calls of active or inactive are those of the source. The rule behind the calls is not given here.

A short description of series [1]: Half life in Sprague-Dawley rat at 10 mg/kg,po administration measured upto 24 hrs by LC-MS/MS analysis. The format is ADME, organism-based. As to conditions: in vivo.
Series [2] concerns MV4-11. As to the kind of experiment: Induction of cell cycle arrest in human MV4-11 cells assessed as accumulation of cells at G0/G1 phase at 5 uM incubated for 24 hrs by propidium iodide staining flow cytometric analysis (reference value: 37.64 %). The format is functional. (A flow cytometer gives signals particle by particle.)
The test system of series [3] is MV4-11. As to the kind of experiment: Induction of apoptosis in human MV4-11 cells assessed as upregulation of p21 expression at 0.3125 to 2.5 uM incubated for 48 hrs by Western blotting analysis. In kind it is functional, cell-based. To be noted: dose 0.3125-2.5 µM. (In general: In western blotting, separated proteins are transferred to a membrane and probed.)
The subject of series [4] is MV4-11. The experiment in a line: Induction of apoptosis in human MV4-11 cells assessed as upregulation of cleaved PARP expression at 0.3125 to 2.5 uM incubated for 48 hrs by Western blotting analysis. The format is functional, cell-based. As to conditions: dose 0.3125-2.5 µM.
Series [5] concerns MV4-11. The experiment in a line: Induction of apoptosis in human MV4-11 cells assessed as necrotic cells at 5 uM incubated for 24 hrs by annexin V-FITC/PI staining based flow cytometric analysis (reference value: 2.35 %). The format is functional.
The nature of series [6]: MRTinfinity in Sprague-Dawley rat at 1 mg/kg,iv administration measured upto 24 hrs by LC-MS/MS analysis. The format is ADME, organism-based. As to conditions: in vivo.
The test system of series [7] is MV4-11. As to the kind of experiment: Induction of apoptosis in human MV4-11 cells assessed as early apoptotic cells at 5 uM incubated for 24 hrs by annexin V-FITC/PI staining based flow cytometric analysis (reference value: 0%). The format is functional.
The test system of series [8] is MV4-11. The experiment in a line: Induction of apoptosis in human MV4-11 cells assessed as viable cells at 5 uM incubated for 24 hrs by annexin V-FITC/PI staining based flow cytometric analysis (reference value: 97%). In kind it is functional. To be noted: Homo sapiens, MV4-11, read-out: Activity.
Series [9] deals with MV4-11. The experiment in a line: Induction of apoptosis in human MV4-11 cells assessed as viable cells at 10 uM incubated for 24 hrs by annexin V-FITC/PI staining based flow cytometric analysis (reference value: 97%). The format is functional. As to conditions: Homo sapiens, MV4-11, read-out: Activity.
The nature of series [10]: Clearance in Sprague-Dawley rat at 1 mg/kg,iv administration measured upto 24 hrs by LC-MS/MS analysis. As to conditions: in vivo. The format is ADME, organism-based.
The test system of series [11] is MV4-11. As to the kind of experiment: Induction of apoptosis in human MV4-11 cells assessed as late apoptotic cells at 2.5 uM incubated for 24 hrs by annexin V-FITC/PI staining based flow cytometric analysis (reference value: 0.04 %). The format is functional.
The subject of series [12] is MV4-11. The experiment in a line: Induction of apoptosis in human MV4-11 cells assessed as downregulation of c-Myc expression at 500 nM hrs by Western blotting analysis. To be noted: TDE = time-dependent effect. The format is functional, cell-based.
The target in series [13] is Bromodomain-containing protein 2 (Homo sapiens) (UniProt P25440). To be noted: time 30.0 min.
Chain of Bromodomain-containing protein 2 (Homo sapiens) (P25440 whole entry, looked up): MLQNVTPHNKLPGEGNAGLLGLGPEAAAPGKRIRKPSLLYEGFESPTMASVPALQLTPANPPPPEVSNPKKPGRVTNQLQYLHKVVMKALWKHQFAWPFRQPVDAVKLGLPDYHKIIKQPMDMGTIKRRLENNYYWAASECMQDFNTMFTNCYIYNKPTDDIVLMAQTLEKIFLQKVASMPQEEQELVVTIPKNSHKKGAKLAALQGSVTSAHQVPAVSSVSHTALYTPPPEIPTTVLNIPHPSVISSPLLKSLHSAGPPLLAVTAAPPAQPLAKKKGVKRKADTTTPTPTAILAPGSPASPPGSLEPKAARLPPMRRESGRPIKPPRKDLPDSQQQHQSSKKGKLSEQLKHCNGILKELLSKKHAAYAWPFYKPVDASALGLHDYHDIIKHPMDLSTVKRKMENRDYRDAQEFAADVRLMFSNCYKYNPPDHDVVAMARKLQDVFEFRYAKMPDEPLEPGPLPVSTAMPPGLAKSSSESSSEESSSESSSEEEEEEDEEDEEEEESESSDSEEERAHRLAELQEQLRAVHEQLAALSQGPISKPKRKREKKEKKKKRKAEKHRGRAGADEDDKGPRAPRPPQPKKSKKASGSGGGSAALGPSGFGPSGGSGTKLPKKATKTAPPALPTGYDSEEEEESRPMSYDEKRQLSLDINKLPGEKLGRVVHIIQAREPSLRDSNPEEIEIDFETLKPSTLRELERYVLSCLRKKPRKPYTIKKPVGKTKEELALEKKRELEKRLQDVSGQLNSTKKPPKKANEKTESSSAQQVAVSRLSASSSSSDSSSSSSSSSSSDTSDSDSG

Take `COc1cc2c(cc1-c1c(C)noc1C)ncc1nc(C)n([C@H](C)c3ccccc3)c12`: in [1], the half-life (usually how long it takes for the measured level to halve) is 2.65 h. Further, the Activity with MV4-11 [2] is 78.57%; with MV4-11 [5], 8%; with MV4-11 [7], 8.46%; with MV4-11 [11], 9.68%; in the series on MV4-11 [12], “Tde”. For the same compound, the outcome with MV4-11 [3] and in the series on MV4-11 [4] was Active. Moreover, the MRT inf (in general, a mean duration of stay, worked out from the concentration-time curve) in series [6] is 0.84 h. Further, in the series with MV4-11 [8], the viability at 5 µM amounted to 78.4%. In the series with MV4-11 [9], the viability at 10 µM was 73.5%. Moreover, the clearance (commonly the volume of plasma or blood freed of the substance per unit of time) in series [10] amounted to 12.1 mL/min/kg.
Consider `COc1cc2c(cc1-c1c(C)n[nH]c1C)ncc1nc(C)n([C@H](C)c3ccccc3)c12`, for which the ΔTm (commonly the change in melting temperature against a reference sample) in series [13] worked out at 5 °C.
